The record followed here is patent US11633415B2, “Compounds and methods useful for treating or preventing cancers” (priority 2017, dated 2023).

The term AC50 denotes the concentration at which the activity in the assay is half-maximal. The IC50 is the concentration needed to halve the response being measured.

The target in assay [1] is GST-tagged full-length human CK1α (Homo sapiens (Human), UniProt P48729). The experiment in a line: Kinase enzymatic assay, mobility shift on LabChip system (AC50). It counts as biochemical. The conditions noted are these: mean AC50; 5 μM ATP; 1 μM Profiler Pro FL-Peptide 16 substrate. How it is done:
(§1) Enzymatic assays were performed using a mobility shift assay on the LabChip system. Purified kinase protein was incubated with ATP, substrate, and assay buffer (20 mM Hepes—pH 7.5; 5 mM MgCl2, and 0.01% Triton X-100). The assay reaction was initiated with 5 μM ATP and with each compound present. Compounds were tested at the KM,ATP for the protein target (GST-tagged full-length human CK1α, available from Carna Biosciences, Japan) or over a range of ATP concentrations between 5 μM and 9 μM. […] AC50 values were determined using phosphorylated and unphosphorylated substrates.

In assay [2] the test system is colorectal carcinoma cell line HT29. The assay can be described thus: Cell viability assay, HT29. The conditions noted are these: Homo sapiens, HT-29; HT29, 72 hours from plating (48 hours from compound administration). Format: cell-based. The procedure: Cell viability assays were conducted against colorectal carcinoma cell line HT29. Cells were plated in wells and at 24 hours after plating, compounds were added to determine their effect on cell viability at various dosages. After 48 hours from compound administration, the cell viability was determined and the IC50 values were calculated. […] FIG. 4B illustrates the results of another cell viability measurement and IC50 value for Compound 1 assessed by ATP abundance on HT29 at 5 days.

Assay [3] concerns the target CSNK1A1 (Homo sapiens (Human), UniProt P48729). The assay can be described thus: Kinase enzymatic IC50 (Carna Biosciences mobility shift assay). It counts as biochemical. How it is done: as §1
Where [4] appears, read: Table 1, CSNK1A1 inhibitors, read-out: IC50.

Molecules are shown by their SMILES. Like-named read-outs stand apart in the source and are kept apart here.

CSNK1A1, sequence (P48729 whole entry): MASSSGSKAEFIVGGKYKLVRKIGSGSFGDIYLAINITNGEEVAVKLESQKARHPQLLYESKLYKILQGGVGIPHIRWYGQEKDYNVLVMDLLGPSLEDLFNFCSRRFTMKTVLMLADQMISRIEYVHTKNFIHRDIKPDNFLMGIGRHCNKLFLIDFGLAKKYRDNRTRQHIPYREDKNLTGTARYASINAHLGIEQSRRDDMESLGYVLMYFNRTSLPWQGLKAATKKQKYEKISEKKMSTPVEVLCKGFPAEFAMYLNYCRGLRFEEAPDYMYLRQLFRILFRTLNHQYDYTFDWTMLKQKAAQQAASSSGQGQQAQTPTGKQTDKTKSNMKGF
GST-tagged full-length human CK1α, sequence (P48729 whole entry): as above

Regarding `CCC(CC)COC(=O)C(C#N)c1nc2ccccc2nc1N1CCNC(C(C)C)C1` (stereo not drawn), the AC50 in assay [1] worked out at 1.39 µM. Still for that read-out and setting: as for `CCC(CC)COC(=O)C(C#N)c1nc2ccccc2nc1N1CCNC(Cc2ccccc2)C1` (stereo not drawn), the figure is 1.27 µM; as for `N#CC(C(=O)OCC1CCCCCC1)c1nc2ccccc2nc1N1CCNCC1` (stereo not drawn), 0.355 µM. Same read-out and setting: as for `CN1CCN(c2nc3ccccc3nc2C(C#N)C(=O)OCC2CCCCC2)CC1` (stereo not drawn), the figure is 0.029 µM; as for `CC(C)COC(=O)C(C#N)c1nc2ccccc2nc1N1CCC(C(N)=O)CC1` (stereo not drawn), 4.64 µM. As to `N#CC(C(=O)OCc1ccncc1)c1nc2ccccc2nc1N1CCNCC1` (stereo not drawn), in assay [1], the AC50 came to 0.468 µM. On the same count and under the same terms, with `N#CC(C(=O)OCC1CCCC1)c1nc2ccccc2nc1N1CCNCC1` (stereo not drawn) the figure was 0.138 µM; with `CCC(CC)COC(=O)C(C#N)c1nc2ccccc2nc1N1CCNC(c2ccccc2)C1` (stereo not drawn), 2.22 µM; with `CCC(CC)COC(=O)C(C#N)c1nc2ccccc2nc1N1CCN[C@@H](C)C1` (stereo partly drawn), 1.22 µM.

`CCC(CC)COC(=O)C(C#N)c1nc2ccccc2nc1N1CCNC(CC)C1` (stereo not drawn): the AC50 in assay [1] amounted to 0.958 µM.

Regarding `CCC(CC)COC(=O)C(C#N)c1nc2ccccc2nc1N1CCNC(CO)C1` (stereo not drawn), in assay [1], the AC50 came to 0.517 µM. For the compound `CN1CCN(c2nc3ccccc3nc2C(C#N)C(=O)OCc2ccccc2)CC1` (stereo not drawn), the IC50 in assay [2] was 56800 nM.

Turning to `N#CC(C(=O)OCC1CCCCC1)c1nccnc1N1CCNCC1` (stereo not drawn), in assay [1], the half-maximal activity concentration (AC50) stood at 0.304 µM.

`CCC(CC)COC(=O)C(C#N)c1nc2ccccc2nc1N1CCNC(C(=O)OC)C1` (stereo not drawn): the AC50 in assay [1] turned out to be 3.15 µM. With `CCC(CC)COC(=O)C(C#N)c1nc2ccccc2nc1NC1CCNCC1` (stereo not drawn), the AC50 in assay [1] amounted to 1.33 µM. Take `CCC(CC)COC(=O)C(C#N)c1nc2ccccc2nc1N1CCNC(=O)C1` (stereo not drawn): the AC50 in assay [1] came to 1.74 µM. As to `N#CC(C(=O)NCC1CCCCC1)c1nc2ccccc2nc1N1CCNCC1` (stereo not drawn), in assay [1], the half-maximal activity concentration (AC50) was determined as 1.76 µM. For the compound `N#CC(C(=O)OCc1cccnc1)c1nc2ccccc2nc1N1CCNCC1` (stereo not drawn), in assay [1], the AC50 was found to be 0.95 µM. The same measure, in the same setting: as for `CCC(CC)COC(=O)C(C#N)c1nc2ccccc2nc1N1CCNC(C)C1` (stereo not drawn), the figure is 0.434 µM; as for `N#CC(C(=O)OCc1ccc2ccccc2c1)c1nc2ccccc2nc1N1CCNCC1` (stereo not drawn), 3.87 µM; as for `CCC(CC)COC(=O)C(C#N)c1nc2ccccc2nc1N1CCN[C@H](C)C1` (stereo partly drawn), 0.333 µM. In the case of `N#C/C(C(=O)OCC1CCCCC1)=C1/Nc2c(F)cccc2N=C1N1CCNCC1`, in assay [1], the AC50 is 1.14 µM. In the case of `N#C/C(C(=O)OCC1CCCCC1)=C1/Nc2ccc(F)cc2N=C1N1CCNCC1`, the AC50 in assay [1] was determined as 0.065 µM. Still for that read-out and setting: with `N#C/C(C(=O)NCc1ccccc1)=C1/Nc2ccccc2N=C1N1CCNCC1` the figure was 1.92 µM. The same measure, in the same setting: as for `N#C/C(C(=O)OCC1CCCCC1)=C1/Nc2cccc(F)c2N=C1N1CCNCC1`, the figure is 0.405 µM; as for `N#C/C(C(=O)OCC1CCCCC1)=C1/Nc2ccc([N+](=O)[O-])cc2N=C1N1CCNCC1`, 0.158 µM; as for `N#C/C(C(=O)OCC1CCCCC1)=C1/Nc2ccc(-c3ccccc3)cc2N=C1N1CCNCC1`, 0.27 µM. For the compound `N#C/C(C(=O)OCC1CCCCC1)=C1\C=C(N2CCNCC2)N=CN1`, the half-maximal activity concentration (AC50) in assay [1] is 3.78 µM. `N#C/C(C(=O)OCC1CCCCC1)=C1/Nc2ccc(-c3cccc(F)c3)cc2N=C1N1CCNCC1`: in assay [2], half-maximal inhibition (IC50) was put at 2310 nM. Moreover, in assay [1], the AC50 was 0.108 µM.

`N#C/C(C(=O)OCC1CCCCC1)=C1/Nc2ccccc2C=C1N1CCNCC1`: the AC50 in assay [1] came to 1.33 µM. On to `N#C/C(C(=O)OCC1CCCCC1)=C1/NC=NC=C1N1CCNCC1`, for which the AC50 in assay [1] was determined as 0.467 µM. Take `N#C/C(C(=O)CCC1CCCCC1)=C1/Nc2ccccc2N=C1N1CCNCC1`: the AC50 in assay [1] is 3.15 µM. Compound `N#C/C(C(=O)OCC1CCCCC1)=C1/Nc2cc(N)ccc2N=C1N1CCNCC1` registered an IC50 in assay [2] of 3710 nM. On the same count and under the same terms, as for `N#C/C(C(=O)OCC1CCCCC1)=C1/Nc2cccc(N)c2N=C1N1CCNCC1`, the figure is 5460 nM. As to `CN1CCN(c2nc3ccccc3nc2C(C#N)C(=O)OCC(C)(C)C)CC1` (stereo not drawn) [2,2 dimethyl propyl 2-cyano-2-(3-(4-(methylpiperazin-1-yl)quinoxalin-2-yl)acetate], the IC50 in assay [3] (setting [4]) stood at 715 nM. On the same count and under the same terms, as for `CC(C)(C)COC(=O)C(C#N)c1nc2ccccc2nc1N1CCNCC1` (stereo not drawn) [2,2 dimethyl propyl 2-cyano-2-(3-(4-(piperazin-1-yl)quinoxalin-2-yl)acetate], the figure is 210 nM; as for `CCC(CC)COC(=O)C(C#N)c1nc2ccccc2nc1N1CCC(N)CC1` (stereo not drawn) [2-ethylbutyl 2-cyano-2-(3-(4-(amino)piperidin-1-yl)quinoxalin-2-yl)acetate], 3320 nM. Consider `CCC(CC)COC(=O)C(C#N)c1nc2ccccc2nc1N1CCC(CN)CC1` (stereo not drawn) [2-ethylbutyl 2-cyano-2-(3-(4-(aminomethyl)piperidin-1-yl)quinoxalin-2-yl)acetate], for which the IC50 in assay [3] (setting [4]) came out at 1750 nM. For `CCC(CC)COC(=O)C(C#N)c1nc2ccccc2nc1N1CCN(C)CC1` (stereo not drawn) [2-ethylbutyl 2-cyano-2-(3-(4-(methylpiperazin-1-yl)quinoxalin-2-yl)acetate], in assay [3] (setting [4]), the IC50 worked out at 399 nM. As to `CCC(CC)COC(=O)C(C#N)c1nc2ccccc2nc1N1CCNCC1` (stereo not drawn) [2-ethylbutyl 2-cyano-2-(3-(4-(piperazin-1-yl)quinoxalin-2-yl)acetate], the 50% inhibitory concentration (IC50) in assay [3] (setting [4]) stood at 94 nM. On the same count and under the same terms, with `N#CC(C(=O)OCc1ccccc1F)c1nc2ccccc2nc1N1CCNCC1` (stereo not drawn) [2-fluorobenzyl 2-cyano-2-(3-(4-(piperazin-1-yl)quinoxalin-2-yl)acetate] the figure was 1880 nM. Same read-out and setting: as for `N#CC(C(=O)OCc1cccc(N)c1)c1nc2ccccc2nc1N1CCNCC1` (stereo not drawn) [3-aminobenzyl 2-cyano-2-(3-(4-(piperazin-1-yl)quinoxalin-2-yl)acetate], the figure is 4130 nM. The same measure, in the same setting: as for `N#CC(C(=O)OCc1cccc(F)c1)c1nc2ccccc2nc1N1CCNCC1` (stereo not drawn) [3-fluorobenzyl 2-cyano-2-(3-(4-(piperazin-1-yl)quinoxalin-2-yl)acetate], the figure is 268 nM; as for `CN1CCN(c2nc3ccccc3nc2C(C#N)C(=O)OCc2ccc(F)cc2)CC1` (stereo not drawn) [4-fluorobenzyl 2-cyano-2-(3-(4-(methylpiperazin-1-yl)quinoxalin-2-yl)acetate], 2890 nM; as for `N#CC(C(=O)OCc1ccc(F)cc1)c1nc2ccccc2nc1N1CCNCC1` (stereo not drawn) [4-fluorobenzyl 2-cyano-2-(3-(4-(piperazin-1-yl)quinoxalin-2-yl)acetate], 1290 nM. Take `Nc1ncnc2c1c(COc1cccc(Cl)c1)nn2C1CCOCC1` [PF4800567, 3-(3-chloro-phenoxymethyl)-1-(tetrahydro-pyran-4-yl)-1H-pyrazolo[3,4-d]pyrimidin-4-ylamine, reference compound]: the IC50 came out at 857 nM in assay [3] (setting [4]) and 860 nM in assay [3] (known inhibitors, background text (rounded Table 1 values), read-out: IC50 against CSNK1A1). On to `N#CC(C(=O)OCc1ccccc1)c1nc2ccccc2nc1N1CCC(N)CC1` (stereo not drawn) [benzyl 2-(3-(4-aminopiperidin-1-yl)quinoxalin-2-yl)-2-cyanoacetate], for which, in assay [3] (setting [4]), the IC50 worked out at 1890 nM. On the same count and under the same terms, with `CNC1CCN(c2nc3ccccc3nc2C(C#N)C(=O)OCc2ccccc2)CC1` (stereo not drawn) [benzyl 2-cyano-2-(3-(4-(methylamino)piperidin-1-yl)quinoxalin-2-yl)acetate] the figure was 4390 nM. As for `CCC(CC)COC(=O)C(C#N)c1nc2ccccc2nc1N1CCN(CC)CC1` (stereo not drawn) [compound 3, 2-ethylbutyl 2-cyano-2-(3-(4-ethylpiperazin-1-yl)quinoxalin-2-yl)acetate], in assay [3] (setting [4]), the IC50 was determined as 5000 nM. Same read-out and setting: with `CN1CCN(c2nc3ccccc3nc2C(C#N)C(=O)OC2CCCCC2)CC1` (stereo not drawn) [compound 4, cyclohexyl 2-cyano-2-(3-(4-methylpiperazin-1-yl)quinoxalin-2-yl)acetate] the figure was 3180 nM. Take `CC(C)(C)COC(=O)C(C#N)c1nc2ccccc2nc1N1CCNCC1` (stereo not drawn) [drawing 115]: in assay [1], the AC50 is 0.151 µM. Same read-out and setting: with `CN1CCN(c2nc3ccccc3nc2C(C#N)C(=O)OCC(C)(C)C)CC1` (stereo not drawn) [drawing 117] the figure was 0.822 µM; with `N#CC(C(=O)OCc1ccccc1F)c1nc2ccccc2nc1N1CCNCC1` (stereo not drawn) [drawing 123], 1.51 µM. Still for that read-out and setting: as for `CCC(CC)COC(=O)C(C#N)c1nc2ccccc2nc1N1CCC(CN)CC1` (stereo not drawn) [drawing 124], the figure is 2.6 µM; as for `CCC(CC)COC(=O)C(C#N)c1nc2ccccc2nc1N1CCC(N)CC1` (stereo not drawn) [drawing 126], 4.22 µM; as for `N#CC(C(=O)OCc1ccc(F)cc1)c1nc2ccccc2nc1N1CCNCC1` (stereo not drawn) [drawing 129], 2.73 µM. On the same count and under the same terms, as for `N#CC(C(=O)OCc1ccccc1)c1nc2ccccc2nc1N1CCC(N)CC1` (stereo not drawn) [drawing 131], the figure is 1.82 µM; as for `N#CC(C(=O)OCc1cccc(F)c1)c1nc2ccccc2nc1N1CCNCC1` (stereo not drawn) [drawing 134], 0.353 µM. Take `N#CC(C(=O)OCc1cccc(N)c1)c1nc2ccccc2nc1N1CCNCC1` (stereo not drawn) [drawing 141]: the AC50 in assay [1] was determined as 3.8 µM. On to `CCC(CC)COC(=O)C(C#N)c1nc2ccccc2nc1N1CCN(C)CC1` (stereo not drawn) [drawing 142], for which the concentration at half-maximal activity (AC50) in assay [1] stood at 1.34 µM.

In the case of `CN1CCN(c2nc3ccccc3nc2C(C#N)C(=O)OCc2ccc(F)cc2)CC1` (stereo not drawn) [drawing 146], in assay [1], the AC50 is 2.04 µM. On to `CNC1CCN(c2nc3ccccc3nc2C(C#N)C(=O)OCc2ccccc2)CC1` (stereo not drawn) [drawing 147], for which the AC50 in assay [1] is 3.65 µM.

Consider `CCC(CC)COC(=O)C(C#N)c1nc2ccccc2nc1N1CCNCC1` (stereo not drawn) [drawing 149], for which, in assay [1], the AC50 was determined as 1.94 µM. As for `CCN1CCN(c2nc3ccccc3nc2C(C#N)C(=O)OC2CCCCC2)CC1` (stereo not drawn) [drawing 166], 17400 nM corresponded to half-maximal inhibition in assay [2] (IC50).
